Results from patent publication US12502391B2, “Multi-kinase inhibitors of VEGF and TGF beta and uses thereof” (AIVIVA BIOPHARMA, INC., priority 2018, dated 2025).
“And” between values parts separate entries of the source, which are not always exact repeats. Identical values can stand only once. Like-named read-outs stand apart in the source and are kept apart here.

What was measured:
[1] = system: LL37-induced inflammation; test: Histopathology (inflammation, CD4+ and CD8+ lymphocyte scores) in LL37-induced dermal inflammation model; assay type: in vivo; conditions: mice, single intradermal injection 1.6 mg, LL-37 challenge, 48 hours
Experimental: In our study, mice were injected subcutaneously with 40 μl of LL-37 (3.3 mg/mL) to induce inflammatory reactions. Immediately following the LL-37 injection, axitinib, nintedanib, sunitinib, or lenvatinib were individually administered as a single intradermal injection (1.6 mg). LL-37 injection was repeated every 12 hours for a total of 4 injections. Endotoxin-free water and dexamethasone (3 mg/kg by intraperitoneal injection, twice), respectively, were used as negative and positive control groups.
At 48 hours after the initial LL-37 injection, the dorsal skin was photographed, and the severity of skin lesions were scored for redness and measured for areas of involvement.
Mice were then anaesthetized, and tissue samples of lesion sites were excised and fixed for H&E stainings and immunohistochemical analysis. Markers for inflammation (CD4 and CD8) were determined using specific antibodies. TGF beta levels are measured by mRNA expression using qPCR.
The tissue samples were analyzed for inflammation characteristics. Histopathology endpoints included inflammation, and CD4+ and CD8+T-lymphocyte immunostaining. For inflammation scores, tissues were examined histologically and scored for inflammatory cell infiltrate.

TGF-beta 1 = test: Dermal TGFb1 levels (ELISA) after linear incisional wounds in minipigs; assay type: in vivo, Gottingen Minipigs; conditions: approximately 16 mg intradermally once per incisional wound, biopsies days 4, 7, 9 post-dosing
Text: The purpose of this study was to evaluate the topical effects of axitinib, nintedanib, sorafenib and lenvatinib when administered via intradermal injection to the dorsal skin along linear incisions of minipigs. Linear incisional wound was made to elicit inflammatory and wound healing process in the skin. After dosing, mammals were observed post dose for 9 days to assess the levels of TGFb1 expressions in the skin.
Three male Gottingen Minipigs® dosed once via intradermal injection along the edges of each of the linear incision wound sites for each mammal (wounds on the dorsum, perpendicular to the spine, approximately 3 cm in length and 3 cm distance from the spine). Each incisional wound received approximately 16 mg of the test compound intradermally once along both sides of the linear wound.
On days of 4, 7, and 9 post-dosing, one 4 mm dermal punch biopsy was collected for each incisional wound and processed for TGF-beta 1 analysis with ELISA, using a commercial kit (e.g., the kit from Thermo Fisher or other vendors).

TGF beta1 mRNA = TGF beta1 mRNA expression (qRT-PCR) in rabbit ear hypertrophic scar model; assay type: in vivo, New Zealand white rabbits; conditions: 1% w/w, 100 μl intradermal on days 15 and 29, harvest Day 43
Experimental: The objective of this study was to examine the effect of test compounds on wound healing and TGF beta expression after dermal injury in a rabbit ear hypertrophic scar model.
In New Zealand white rabbits, maintained under a surgical plane of anesthesia, trauma stimulation of the skin on the ventral surface of both ears is initiated on Day 1. Trauma sites are evaluated on Days 8, 15, 22, 29, 36, and 43. On days 15 and 29, each site is dosed with test compounds (e.g., 1% w/w, 100 μl) by intradermal or intralesional injections.
Mammals are euthanized on Day 43, and the trauma sites are harvested and frozen for TGF beta analysis using quantitative RT-PCR (qRT-PCR) (e.g., A. K. Johnson et al., Dev. Comp. Immunol., 2006; 30(5): 473-84). TGF beta1 mRNA expression levels in treated trauma samples are compared to the expression level in the untreated trauma sample.

[2] = system: suture-induced ocular fibrosis; test: Rabbit corneal suture-induced ocular fibrosis model; assay type: in vivo, rabbits; conditions: 0.3% w/v eyedrops 35 uL three times daily for 10 days
Text: In order to investigate the anti-fibrotic effect of test compounds following wounding in the eye, a suture-induced ocular fibrosis model was used. Suture was placed intrastromally under a microscope in the cornea of rabbits. In each eye, one 9.0 silk suture was placed, in a vertical position, temporal to the corneal center and a second suture was placed nasal to the corneal center. Each suture had two stromal incursions approximately 2 mm from the limbus. Test compounds having certain spectrum of multikinase inhibition activities and/or vehicle were topically instilled (35 uL/eye) in the eyes three times daily for 10 days the day following surgery. The treatment groups include vehicle, nintedanib (0.3%, w/v), pirfenidone (1%, w/v), riociguat (0.3%, w/v), sorafenib (0.3%, w/v) and lenvatinib (0.3%, w/v). Six left eyes were used per treatment group.
The animals were sacrificed on Day 11 and the eyes enucleated and dissected for histopathological evaluation.

[3] = Ocular tissue and plasma distribution after topical ocular instillation (LC-MS/MS); assay type: in vivo, New Zealand White rabbits; conditions: male, New Zealand White, rabbit
Experimental: The objective of this study was to assess the local tolerance and ocular distribution of sorafenib and lenvatinib (0.3% w/w) when administered by topical ocular instillation in the eyes. Five to six male New Zealand White rabbits were used per treatment group. Each right eye received a 35 μL eyedrop of the vehicle, sorafenib (0.3% w/w), or lenvatinib (0.3% w/w) three times daily for 5 days. On Dosing Day 5, the animals were sacrificed and eyes were enucleated, and plasma and the ocular tissues were collected. Tissue and plasma concentrations of the compounds were measured by LC-MS/MS.

[4] = system: full-thickness excision wounds; test: Histology of full-thickness excision wounds in Yucatan minipigs (fibroplasia, neovascularization); assay type: in vivo; conditions: for Neovascularization; dermis, average score / Fibroplasia; dermis, average score: Yucatan minipig wound sites after two doses, Day 59, scale 1 (minimal) to 5 (severe); for Neovascularization; dermis, average score: untreated 2.33; for Fibroplasia; dermis, average score: untreated 3.33
Text: (§1) In this experiment, multiple full-thickness excision wounds were made to the dorsum of Yucatan minipigs, and the wound sites were allowed to be re-epithelialized adequately. At four weeks post-wound, the wound sites had normal to pink vascularity and had pliability. Epidermal hyperplasia was observed, as expected for regenerative responses in the full-thickness wounds.
(§2) On Day 28 post-wound, a dose (e.g., 1%) of axitinib, nintedanib, riociguat, sorafenib, sunitinib, and/or lenvatinib was administered into the dermal tissue at or around the wound sites, once every two weeks on two occasions. One wound site was left untreated as the control for each pig. Please note that the particular parameters in this example are only for illustration. One skilled in the art would appreciate that the dosages, administration methods, treatment regimen, and the administration sites may be varied to achieve similar results.
On Day 59 post wound, the minipigs were sacrificed and dermal tissues were collected for qualitative and quantitative evaluation using hematoxylin and eosin, and Mason's Trichrome staining. Dermal fibroplasia was characterized by increased numbers of fibroblasts in the dermis suspended in variable amounts of collagen in wounds.

TGF-β1 mRNA = TGF-β1 mRNA expression (qRT-PCR) in Yucatan pig skin wound sites; assay type: in vivo, Yucatan minipigs; conditions: Yucatan pig skin wound sites after treatments; for TGF-β1 mRNA Expression Fold Relative to Untreated Unwounded Control: individual animals 7369, 7370, 7371, duplicate sets 1 and 2, beta actin reference gene
Text: as §1, §2
In addition, total mRNA was isolated from skin biopsies of the treated wound sites and the untreated unwounded sites of the pigs. The mRNA samples were used to prepare cDNA and analyzed via qRT-PCR. The TGF-β1 expression levels were assessed using beta actin as a reference gene.

Compound | scores of inflammation (inflammatory cell infiltrate), words [1] | suppression of dermal TGF beta 1 expression over time (TGF-beta 1) | mean folds of TGF beta mRNA expression versus untreated wound sample (TGF beta1 mRNA) | alpha SMA (smooth muscle actin) staining by immunohistochemistry [2] | areas of neovascularization on the corneal surface [2] | fibroplasia and/or collagen density by histological staining [2] | Neovascularization; dermis, average score [4] | Fibroplasia; dermis, average score [4] | TGF-β1 mRNA Expression Fold Relative to Untreated Unwounded Control (TGF-β1 mRNA) | reduction of TGF-β1 mRNA expression levels at treated wounds (TGF-β1 mRNA) | also measured
COc1cc2nccc(Oc3ccc(NC(=O)NC4CC4)c(Cl)c3)c2cc1C(N)=O [lenvatinib] | prominent reductions | very effective in suppressing the expression of TGF beta 1 | lower than the expression level in the untreated wound sample | significantly reduced alpha SMA (smooth muscle actin) staining | efficacious in reducing the areas of neovascularization | significantly reduced fibroplasia and/or collagen density | (2.33) | (3.00) | 2.27 fold and 0.62 fold and 0.89 fold and 0.38 fold and 0.69 fold and 2.02 fold | – | concentration at 5 day of dosing ([3]; in vivo, Ocular tissue concentration, Aqueous Humor, Mean): 5.49 ng/g; concentration at 5 day of dosing ([3]; in vivo, Ocular tissue concentration, Choroid, Mean): 38 ng/g; concentration at 5 day of dosing ([3]; in vivo, Ocular tissue concentration, Conjunctiva, Mean): 300 ng/g; concentration at 5 day of dosing ([3]; in vivo, Ocular tissue concentration, Cornea, Mean): 178 ng/g; concentration at 5 day of dosing ([3]; in vivo, Ocular tissue concentration, Iris Ciliary Body, Mean): 18.2 ng/g; concentration at 5 day of dosing ([3]; in vivo, Ocular tissue concentration, Retina, Mean): 23.5 ng/g; concentration at 5 day of dosing ([3]; in vivo, Ocular tissue concentration, Sclera, Mean): 49 ng/g; concentration at 5 day of dosing ([3]; in vivo, Ocular tissue concentration, Vitreous Humor, Mean): 0.619 ng/g; concentration at 5 day of dosing ([3]; in vivo, plasma concentration, mean (±SD)): 131 ng/mL
COC(=O)c1ccc2c(c1)NC(=O)/C2=C(\Nc1ccc(N(C)C(=O)CN2CCN(C)CC2)cc1)c1ccccc1 [nintedanib] | prominent reductions | very effective in suppressing the expression of TGF beta 1 | lower than the expression level in the untreated wound sample | significantly reduced alpha SMA (smooth muscle actin) staining | efficacious in reducing the areas of neovascularization | significantly reduced fibroplasia and/or collagen density | (1.67) | (2.33) | 0.70 fold and 0.66 fold and 0.55 fold and 0.56 fold and 0.63 fold and 0.87 fold | most effective | neovascularization and dermal fibroplasia relative to the untreated wound ([4]; Yucatan minipig, two biweekly treatments): noticeably reduced neovascularization with a corresponding reduced dermal fibroplasia
CNC(=O)c1cc(Oc2ccc(NC(=O)Nc3ccc(Cl)c(C(F)(F)F)c3)cc2)ccn1 [sorafenib] | – | not as effective | lower than the expression level in the untreated wound sample | – | inhibition of corneal neovascularization | – | (2.33) | (3.00) | 0.84 fold and 0.60 fold and 0.53 fold and 0.43 fold and 0.55 fold and 0.89 fold | most effective | concentration at 5 day of dosing ([3]; aqueous humor, topical, 0.3 % w/w (35 μL eyedrop), rabbit eyes, topical instillation of 0.3% three times daily for five days, N=6, read-out: Ocular tissue concentration, Aqueous Humor, Mean): 0 ng/g; concentration at 5 day of dosing ([3]; choroid, topical, 0.3 % w/w (35 μL eyedrop), rabbit eyes, topical instillation of 0.3% three times daily for five days, N=6, read-out: Ocular tissue concentration, Choroid, Mean): 8.19 ng/g; concentration at 5 day of dosing ([3]; conjunctiva, topical, 0.3 % w/w (35 μL eyedrop), rabbit eyes, topical instillation of 0.3% three times daily for five days, N=6, read-out: Ocular tissue concentration, Conjunctiva, Mean): 860 ng/g; concentration at 5 day of dosing ([3]; cornea, topical, 0.3 % w/w (35 μL eyedrop), rabbit eyes, topical instillation of 0.3% three times daily for five days, N=6, read-out: Ocular tissue concentration, Cornea, Mean): 131 ng/g; concentration at 5 day of dosing ([3]; iris ciliary body, topical, 0.3 % w/w (35 μL eyedrop), rabbit eyes, topical instillation of 0.3% three times daily for five days, N=6, read-out: Ocular tissue concentration, Iris Ciliary Body, Mean): 3.34 ng/g; concentration at 5 day of dosing ([3]; plasma, topical, 0.3 % w/w (35 μL eyedrop), 0.3% w/w eyedrop 35 μL three times daily, Day 5 of dosing, read-out: plasma concentration, mean (±SD)): 5.09 ng/mL; concentration at 5 day of dosing ([3]; retina, topical, 0.3 % w/w (35 μL eyedrop), rabbit eyes, topical instillation of 0.3% three times daily for five days, N=6, read-out: Ocular tissue concentration, Retina, Mean): 17.4 ng/g; concentration at 5 day of dosing ([3]; sclera, topical, 0.3 % w/w (35 μL eyedrop), rabbit eyes, topical instillation of 0.3% three times daily for five days, N=6, read-out: Ocular tissue concentration, Sclera, Mean): 16.4 ng/g; concentration at 5 day of dosing ([3]; vitreous humor, topical, 0.3 % w/w (35 μL eyedrop), rabbit eyes, topical instillation of 0.3% three times daily for five days, N=6, read-out: Ocular tissue concentration, Vitreous Humor, Mean): 0.11 ng/g
